Here are results for 4 compounds from US20060073528A1, “Measurement methods” (priority 2004, published 2006).

Where “and” joins values, the source holds several entries; their conditions need not be identical. Identical values can stand only once. Like-named read-outs stand apart in the source and are kept apart here.

The nature of data set [1]: Sample stability of DM1-related impurities with DS-DM1-deJ591 in the autosampler (Hisep RP-HPLC).
Description: The sample was analyzed at times t=0 h, 12 h, and 24 h. Sample stability was determined by comparing the area percent (area %) values of the stored sample to that of the initially-prepared solution (t=0 h).
The nature of data set [2]: Lyophilized standard stocks reconstituted and analyzed by Hisep RP-HPLC (monomer to dimer conversion). In kind it is physicochemical. Conditions: for Dimer area observed / Monomer area observed: single injections. The method, then:
All vials contained a total of 15 nmol. Two vials of each standard were reconstituted by adding 150 μL of 50% acetonitrile/0.01% TFA to make a 100 μM stock solution; the remaining vials were reconstituted with 300 μL to make 50 μM stocks. The stocks were further diluted to the working concentration of 5 μm and analyzed. […] The stability of these standards were monitored over time.

Setting [3] is: 50 μM stock - lyophilized, average per vial.
The mark [4] stands for this setting: 100 μM stock - lyophilized, average per vial.
The mark [5] stands for this setting: 100 μM stock - lyophilized, vials 1 and 2.

With `COc1cc2cc(c1Cl)N(C)C(=O)C[C@H](OC(=O)[C@H](C)N(C)C(=O)CCS)[C@]1(C)O[C@H]1[C@H](C)[C@@H]1C[C@@](O)(NC(=O)O1)[C@H](OC)/C=C/C=C(\C)C2` [DM1 monomer], the Average peak area in data set [1] (t = 0 h) stood at 223667; in data set [1] (t = 12 h) it was 217293; in data set [1] (t = 24 h) it was 214265. For the same compound, the “DM1 monomer to dimer conversion after lyophilization” value in data set [2] (15 nmol vials lyophilized, reconstituted in 50% acetonitrile/0.01% TFA to 100 μM or 50 μM, diluted to 5 μM) is “significant DM1 monomer→dimer conversion”. In addition, the “Dimer area observed, Average” value in data set [2] (setting [3]) is 10669; in data set [2] (setting [4]), 10086 and 10158. The “Monomer area observed, Average” value was 476235 and 412633 in data set [2] (setting [3]); 391081 and 417523 in data set [2] (setting [4]); 459843 in data set [2] (100 μM stock - untreated). Besides, the Dimer area observed in data set [2] (50 μM stock - lyophilized) was 10097 and 10809 and 11100; in data set [2] (setting [5]), 10508 and 8635 and 11114 and 10029 and 10666 and 9780. In addition, the Monomer area observed is 476970 and 475075 and 476660 and 415292 and 411974 and 410632 in data set [2] (50 μM stock - lyophilized, vials 1 and 2); 392043 and 391526 and 389675 and 418902 and 418204 and 415463 in data set [2] (setting [5]); 459407 and 460238 and 459885 in data set [2] (100 μM stock - untreated).
On to `COc1cc2cc(c1Cl)N(C)C(=O)CC(OC(=O)C(C)N(C)CC(=O)CCSSC(C)CCC(=O)O)C1(C)OC1C(C)C1CC(O)(NC(=O)O1)C(OC)C=CC=C(C)C2` (stereo not shown) [DM1-TPA adduct, DM1-thiopentanoic acid adduct], for which the Average peak area in data set [1] (t = 0 h) amounted to 246302; in data set [1] (t = 12 h), 245410; in data set [1] (t = 24 h), 245126.
For the compound `CC(CCC(=O)O)SSc1ccccn1` (stereo not shown) [PPA, 4-(2-pyridyldithio) pentanoic acid], the “% remaining area counts relative to t = 0 h” value by setting is: (12 h) 96.83%; (24 h) 98.20%. Also, the Average peak area in data set [1] (t = 0 h) is listed as 15881; in data set [1] (t = 12 h), 15377; in data set [1] (t = 24 h), 15595.
Turning to `S=c1cccc[nH]1` [mercaptopyridine], the Average peak area in data set [1] (t = 0 h) came out at 15446; in data set [1] (t = 12 h) it was 15654; in data set [1] (t = 24 h), 15620.
